Data from US11793770B2, “7-OH-cannabidiol (7-OH-CBD) and/or 7-OH-cannabidivarin (7-OH-CBDV) for use in the treatment of epilepsy” (GW Research Limited, priority 2014, dated 2023).
Marks after values point to notes of the source that are not given here.

Assays:
[1] = tested on: PTZ-induced seizures; assay: PTZ model of generalised (acute) seizures; type: in vivo, rat; details: for Anti-convulsant action in the PTZ model of acute seizure: 7-OH-CBDV 200 mg/kg, 7-OH-CBD 100 mg/kg IP; for Mortality / Latency to seizure onset / Maximum observed seizure severity (median): CBD and 7-OH CBD 100 mg/kg; for Mortality: FIG. 1B; for Latency to seizure onset: FIG. 1D; for Potency compared with parent cannabinoid: metabolite vs parent (CBD, CBDV) at the same dose; for Maximum observed seizure severity (median): IP 30 min before PTZ 70 or 80 mg/kg IP, score scale 0-6, FIG. 1A
Method: Male Wistar rats (P24-29; 75-110 g) were used to assess the effects of the cannabinoids listed above on the PTZ model of generalised seizures. Animals were habituated to the test environment, cages, injection protocol and handling prior to experimentation. Animals were housed in a room at 21° C. on a 12 hour light: dark cycle (lights on 0900) in 50% humidity, with free access to food and water.
Five 6 L Perspex (RTM) tanks with lids were placed on a single bench with dividers between them. Closed-circuit television (CCTV) cameras were mounted onto the dividers to observe rat behaviour. Sony Topica CCD cameras (Bluecherry, USA) were linked via BNC cables to a low-noise PC via Brooktree digital capture cards (Bluecherry, USA). Zoneminder (http://www.zoneminder.com) software was used to monitor rats, start and end recordings and manage video files. In-house Linux (RTM) scripts were used to encode video files into a suitable format for further offline analysis
Animals were filmed for half an hour after last sign of seizure, and then returned to their cage.
Animals were observed during experimental procedures, but all analysis was performed offline on recorded video files using The Observer behavioural analysis software (Noldus, Netherlands). A seizure severity scoring system was used to determine the levels of seizure experienced by subjects (Table 1). All signs of seizure were detailed for all animals.
The latency (in seconds) from injection of PTZ to first myoclonic jerk (FMJ; score of 1), and to the animal attaining “forelimb clonus with tonic component and body twist” (score of 3.5) were recorded. […] Data are presented as the mean±S.E.M. within an experimental group.
This is given as the median value for each experimental group based on the scoring scale above.
The percentage of animals within an experimental group that died as a result of PTZ-induced seizures. A score of 6 (death) automatically denotes that the animal also experienced tonic-clonic seizures.
This is given as the mean±S.E.M. for each experimental group.
Differences in latencies and durations were assessed by one-way analysis of variance (ANOVA) with post-hoc Tukey's test. P≤0.05 was considered significant.

[2] = WO 01/95899; cited from earlier work
[3] = tested on: Maximal electroshock seizures (MES); assay: Maximal electroshock (MES) model of seizure; type: in vivo, mouse
Method: The vehicle used in this study was 2:1:17 (ethanol:Cremophor:0.9% w/v NaCl). […] This was made to a solution at the highest concentration; then dissolved in ethanol before combination with Cremophor and 0.9% NaCl in the proportion described above. The 7-OH-CBDV was administered intraperitoneally at a volume of 10 ml/kg body weight.
Animal Species/Strain: Mouse/ICR, Microbiological grade: SPF, Inc. Sex: male, Age (at time of testing): 5-7 weeks old, Number of animals: about 5 animals per group. Temperature: 23±2° C., Humidity: 60±10%, Light conditions: 7 AM to 7 PM for the light period, 7 PM to 7 AM for the dark period. Chow and water: Free access to CRF-1 (Oriental Yeast Co, Ltd) and tap water.
One day before each experiment, mice were weighed and randomized into several groups in each test. On the morning of the experiment day, body weight was measured in order to calculate the administration volume of each animal. Vehicle, 7-OH-CBDV or CBDV was interperitoneally administered 30 minutes before electric stimuli. […]
All statistical analyses were performed using SAS Software for Windows, Release 9.1. The difference of the number (hindlimb extension or deaths) in each group was assessed using two-tailed Fisher's exact test. […]

[4] = tested on: seizures in epileptic patients; details: cited from earlier work
[5] = tested on: seizures after pro-convulsant drugs or an electric current; details: mice, after pro-convulsant drugs or an electric current (Consroe et al., 1982); cited from earlier work
[6] = IP 30 min before PTZ, CBDV and 7-OH CBDV 200 mg/kg, n=11
[7] = CBDV and 7-OH CBDV 200 mg/kg, n=11

In the case of C=C(C)[C@@H]1CCC(CO)=C[C@H]1c1c(O)cc(CCCCC)cc1O [7-OH-CBD, 7-hydroxy-cannabidiol], the “Anti-convulsant action in the PTZ model of acute seizure” value [1] is reported as “show anti-convulsant action”, the Mortality [1, 6] is reported as “reduction in mortality” and the “Latency to seizure onset” value [1, 6] is reported as “significantly reduce the latency to onset of seizures”. The “Latency to seizure onset” value ([1]; IP 30 min before PTZ, CBDV and 7-OH CBDV 200 mg/kg, n=11, listed as 7-OH CBD) was “significantly reduced the latency to seizure onset”, the “Potency compared with parent cannabinoid” value [1] was “more potent than their parent cannabinoids” and the “Efficacy in a model of inflammation” value [2] was “found to be effective”.
With C=C(C)[C@@H]1CCC(CO)=C[C@H]1c1c(O)cc(CCC)cc1O [7-OH-CBDV, 7-hydroxy-cannabidivarin] the “Anti-convulsant effects in the MES model” value ([3]; 150 and 200 mg/kg i.p.) was “anti-convulsant effects”, the “Anti-convulsant action in the PTZ model of acute seizure” value [1] was “show anti-convulsant action” and the “Maximum observed seizure severity (median)” value [1, 7] was 3. The Mortality [1, 6] was “significant effect on mortality” and the “Potency compared with parent cannabinoid” value [1] was “more potent than their parent cannabinoids”.
For C=C(C)[C@@H]1CCC(C)=C[C@H]1c1c(O)cc(CCCCC)cc1O [CBD, Cannabidiol], the “Patients becoming seizure free” value ([4]; 200 mg/day pure CBD, four adult patients (Mechoulam and Carlini, 1978)) is listed as “two of the four patients became seizure free”, the Control of seizures ([4]; 200 mg/day pure CBD, open label, twelve institutionalized adult patients (Ames and Cridland, 1986)) is listed as “ineffective in controlling seizures” and the “Number of patients with marked reduction of seizures” value ([4]; eight adult patients with generalized epilepsy (Cunha et al., 1980)) is listed as 4. For the same compound, the “Epileptic patients describing an improvement in their condition” value ([4]; eight epileptic patients (Carlini et al., 1981)) was “Seven out of the eight”, the Mortality [1, 6] was “reduction in mortality” and the Prevention of seizures [5] was “able to prevent seizures”.
In the case of C=C(C)[C@@H]1CCC(C)=C[C@H]1c1c(O)cc(CCC)cc1O [CBDV, Cannabidivarin], the “Percentage decrease in tonic clonic convulsions compared with vehicle” value ([3]; 200 mg/kg i.p., 30 minutes before electric stimuli, ICR mice) is reported as 82% ***, the “Maximum observed seizure severity (median)” value [1, 7] is reported as “significantly reduced seizure severity” and the Mortality [1, 6] is reported as “significant effect on mortality”. For the same compound, the “Incidence of tonic clonic seizures” value ([1]; IP 30 min before PTZ, CBDV and 7-OH CBDV 200 mg/kg, n=11, FIG. 1C) was “significantly reduced”.
